Laboratory results as given in ChEMBL document CHEMBL4699480 (J Med Chem, 2020).
The source made the active and inactive calls. The rule behind the calls is not given here.

Columns and labels:
[1] = target: T1, UDP-N-acetylglucosamine--dolichyl-phosphate N-acetylglucosaminephosphotransferase (Homo sapiens) (UniProt Q9H3H5); test: Inhibition of DPAGT1 in human PD002 cells assessed as reduction in snail protein expression incubated for 24 hrs by immunofluorescence staining assay; format: cell-based
T1 sequence (whole entry): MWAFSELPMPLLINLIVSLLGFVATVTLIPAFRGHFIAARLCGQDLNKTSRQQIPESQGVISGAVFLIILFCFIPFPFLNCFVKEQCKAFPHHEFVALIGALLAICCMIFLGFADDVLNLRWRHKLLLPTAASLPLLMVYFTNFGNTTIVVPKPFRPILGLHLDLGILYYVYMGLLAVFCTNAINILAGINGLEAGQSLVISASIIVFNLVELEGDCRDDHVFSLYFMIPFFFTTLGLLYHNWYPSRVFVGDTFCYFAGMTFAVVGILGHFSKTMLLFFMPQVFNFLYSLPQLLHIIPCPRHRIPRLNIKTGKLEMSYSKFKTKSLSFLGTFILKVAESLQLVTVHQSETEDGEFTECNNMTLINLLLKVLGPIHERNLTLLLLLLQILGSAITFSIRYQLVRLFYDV

[2] = Synergistic cytotoxicity in human PD002 cells assessed as FIC at 2 uM incubated for 72 hrs in presence of 0.020 uM paclitaxel by IncuCyte live cell analysis imaging system based assay; format: functional
SiHa [3] = test: Inhibition of DPAGT1 protein expression in human SiHa cells at 0.2 uM incubated for 24 hrs by Western blot analysis; format: functional, cell-based
CAPAN-1 [4] = test: Inhibition of DPAGT1 protein expression in human CAPAN-1 cells at 0.2 uM incubated for 24 hrs by Western blot analysis; format: functional, cell-based
CAPAN-1 [5] = test: Cytotoxicity in human CAPAN-1 cells assessed as reduction in cell viability incubated for 72 hrs by MTT assay; format: functional, cell-based; conditions: CAPAN-1, 72 h
Vero = test: Cytotoxicity in African green monkey Vero cells assessed as reduction in cell viability incubated for 72 hrs by MTT assay; format: cell-based; conditions: Chlorocebus sabaeus
[6] = target: T1, UDP-N-acetylglucosamine--dolichyl-phosphate N-acetylglucosaminephosphotransferase (Homo sapiens); test: Inhibition of DPAGT1 in human PANC-1 cells assessed as reduction in snail protein expression incubated for 24 hrs by immunofluorescence staining assay; format: cell-based
[7] = Inhibition of DPAGT1 protein expression in human HCT-116 cells assessed as DPAGT1 protein level at 0.1 to 20 uM incubated for 24 hrs by Western blot analysis; format: functional; parameters: scale not given: the % may be the effect or the level left; conditions: dose microM 0.1-20
PD002 = test: Inhibition of E-cadherin protein expression in human PD002 cells at 0 to 2 uM incubated for 24 hrs by Western blot analysis; format: functional, cell-based; conditions: dose microM 0-2, time […]
SiHa [8] = test: Cytotoxicity in human SiHa cells assessed as reduction in cell viability incubated for 72 hrs by MTT assay; format: functional, cell-based
[9] = Synergistic cytotoxicity in human PD002 cells assessed as FIC at 2 uM incubated for 72 hrs in presence of 0.039 uM paclitaxel by IncuCyte live cell analysis imaging system based assay; format: functional
HCT-116 [10] = test: Cytotoxicity in human HCT-116 cells assessed as reduction in cell viability incubated for 72 hrs by MTT assay; format: functional, cell-based; conditions: HCT-116, 72 h
ASPC1 [11] = test: Inhibition of DPAGT1 protein expression in human ASPC1 cells at 0.2 uM incubated for 24 hrs by Western blot analysis; format: functional, cell-based
[12] = Synergistic cytotoxicity in human PD002 cells assessed as FIC at 0.1 uM incubated for 72 hrs in presence of […] paclitaxel by IncuCyte live cell analysis imaging system based assay; format: functional
[13] = Synergistic cytotoxicity in human PD002 cells assessed as FIC at 0.2 uM incubated for 72 hrs in presence of 0.0049 uM paclitaxel by IncuCyte live cell analysis imaging system based assay; format: functional
HCT-116 [14] = test: Inhibition of DPAGT1 protein expression in human HCT-116 cells at 0.2 uM incubated for 24 hrs by Western blot analysis; format: functional, cell-based
[15] = Cytotoxicity in human PD002 cells assessed as reduction in cell viability incubated for 72 hrs by MTT assay; format: functional, cell-based; conditions: PD002, 72 h
[16] = Inhibition of cell migration in human PD002 cells assessed as wound healing rate at 0.2 uM incubated for 24 hrs by wound healing assay (reference value: 63%); format: functional; parameters: scale not given: the % may be the effect or the level left
[17] = Synergistic cytotoxicity in human PD002 cells assessed as FIC at 0.2 uM incubated for 72 hrs in presence of 0.020 uM paclitaxel by IncuCyte live cell analysis imaging system based assay; format: functional
PANC-1 [18] = test: Cytotoxicity in human PANC-1 cells assessed as reduction in cell viability incubated for 72 hrs by MTT assay; format: functional, cell-based; conditions: PANC-1, 72 h
[19] = Cytotoxicity in mouse L1210 cells assessed as reduction in cell viability incubated for 72 hrs by MTT assay; conditions: L1210, 72 h
ASPC1 [20] = test: Cytotoxicity in human ASPC1 cells assessed as reduction in cell viability incubated for 72 hrs by MTT assay; format: functional, cell-based; conditions: ASPC1, 72 h
[21] = target: T1, UDP-N-acetylglucosamine--dolichyl-phosphate N-acetylglucosaminephosphotransferase (Homo sapiens); test: Inhibition of DPAGT1 in human PANC-1 cells assessed as reduction in snail protein expression incubated for 24 hrs by Western blot analysis; format: cell-based
[22] = Cytotoxicity in human hTERT-HPNE cells assessed as reduction in cell viability incubated for 72 hrs by MTT assay; format: cell-based
[23] = Inhibition of N-terminal His9-tagged Methanocaldococcus jannaschii DSM 2661 AglH incubated for 2 hrs using UDP-GlcN-Cg-FITC and alpha-dihydroundecap-renyl phosphate by reversed-phase HPLC analysis
[24] = Synergistic cytotoxicity in human PD002 cells assessed as FIC at 0.2 uM incubated for 72 hrs in presence of 0.031 uM paclitaxel by IncuCyte live cell analysis imaging system based assay; format: functional
[25] = Cytotoxicity in human PD002 cells assessed as phase area confluence level at 50 uM incubated for 72 hrs by IncuCyte live cell analysis imaging system based assay (reference value: 70%)
[26] = target: T1, UDP-N-acetylglucosamine--dolichyl-phosphate N-acetylglucosaminephosphotransferase (Homo sapiens); test: Inhibition of DPAGT1 in human PD002 cells assessed as reduction in snail protein expression incubated for 24 hrs by Western blot analysis; format: cell-based
[27] = Inhibition of N-terminal 6x-His-tagged Hydrogenivirga-sp. 128-5-R1-1 MraY expressed in Escherichia coli NiCo21(DE3) incubated for 2 hrs by reversed-phase HPLC analysis
[28] = Inhibition of Escherichia coli WecA incubated for 2 hrs using UDP-Glucosamine-C6-FITC substrate by reversed-phase HPLC analysis; parameters: species or system Escherichia coli BL21
HCT-116 [29] = test: Inhibition of DPAGT1 protein expression in human HCT-116 cells at 0.1 to 20 uM incubated for 72 hrs by immunofluorescence assay; conditions: dose microM 0.1-20, time 72.0 hrs
PANC-1 [30] = test: Inhibition of DPAGT1 protein expression in human PANC-1 cells at 0.2 uM incubated for 24 hrs by Western blot analysis; format: functional, cell-based

In the case of `CO[C@H]1[C@@H](O)[C@H](n2ccc(=O)[nH]c2=O)O[C@@H]1[C@@H](O[C@H]1OC(C(=O)NCc2ccc(N3CCC(Oc4ccc(OC(F)(F)F)cc4)CC3)cc2)=C[C@H](O)[C@@H]1O)C(N)=O`, the inhibition [1] is reported as “Active”, the FIC [2] is reported as 0.021 and the inhibition (SiHa [3]) is reported as “Active”. The inhibition (CAPAN-1 [4]) was “Active”, the IC50 (CAPAN-1 [5]) was 30 µM and the IC50 (Vero) was greater than 50 µM. The inhibition [6] was “Active”, the Activity [7] was 20% and the inhibition (PD002) was “inactive”. For the same compound, the IC50 (SiHa [8]) was 15 µM, the FIC [9] was 0.037 and the IC50 (HCT-116 [10]) was 15 µM. For the same compound, the inhibition (ASPC1 [11]) was “Active”, the FIC [12] was 0.13 and the FIC [13] was 0.0096. For the same compound, the inhibition (HCT-116 [14]) was “Active”, the IC50 [15] was 35 µM and the Activity [16] was 20%. The FIC [17] was 0.021, the IC50 (PANC-1 [18]) was 35 µM and the IC50 [19] was greater than 50 µM. The IC50 (ASPC1 [20]) was 25 µM, the inhibition [21] was “Active” and the IC50 [22] was greater than 50 µM. It also gave an IC50 [23] of 0.15 µM, an FIC [24] of 0.26 and an Activity [25] of 10%. For the same compound, the inhibition [26] was “Active”, the IC50 [27] was 10.3 µM and the IC50 [28] was 0.1 µM. For the same compound, the inhibition (HCT-116 [29]) was “inactive” and the inhibition (PANC-1 [30]) was “Active”.
